# Test results: the supplement of paper PMC10307832
# Assays:
# Test in all cases: relative viability (nuclei count vs DMSO), 5 days (fraction); higher = more cells survive
# [1] = tested on: NCI-H596
# Summary of the method: (§1)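 Each reported value is a median over duplicate plates. It expresses relative viability: treated-well nuclei count divided by vehicle-well nuclei count. Lung cancer cell lines in 1536-well plates were dosed by pin tool a day after seeding, alone with one drug or with a fixed anchor-drug dose plus five library-drug doses (not always all listed) in √10 steps, and nuclei were counted after 5 days.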
# [2] = tested on: PC-3 [JPC-3]
# Summary of the method: as §1
# [3] = tested on: NCI-H1915
# Summary of the method: as §1
# [4] = tested on: NCI-H2087
# Summary of the method: as §1
# [5] = tested on: 201T
# Summary of the method: as §1
# [6] = tested on: NCI-H650
# Summary of the method: as §1
# [7] = tested on: BEN
# Summary of the method: as §1
# [8] = tested on: LCLC-97TM1
# Summary of the method: as §1
# [9] = tested on: NCI-H441
# Summary of the method: as §1
# [10] = tested on: NCI-H460
# Summary of the method: as §1
# [11] = tested on: NCI-H1944
# Summary of the method: as §1
# [12] = tested on: NCI-H727
# Summary of the method: as §1
# [13] = tested on: A-427
# Summary of the method: as §1
# [14] = tested on: ABC-1
# Summary of the method: as §1
# [15] = tested on: NCI-H1651
# Summary of the method: as §1
# [16] = tested on: H3255
# Summary of the method: as §1
# [17] = tested on: LC-2-ad
# Summary of the method: as §1
# [18] = tested on: NCI-H661
# Summary of the method: as §1
# [19] = tested on: NCI-H2023
# Summary of the method: as §1
# [20] = tested on: CAL-12T
# Summary of the method: as §1
# [21] = tested on: NCI-H520
# Summary of the method: as §1
structure (smiles),measurement,setting,value
Nc1ccn([C@@H]2O[C@H](CO)[C@@H](O)[C@@H]2O)c(=O)n1 [Cytarabine] + Cc1nc(NC(=O)N2CCC[C@H]2C(N)=O)sc1-c1ccnc(C(C)(C)C(F)(F)F)c1 [Alpelisib] (partner 2 µM),relative viability,[1]; first compound 0.005 µM,0.5
same,relative viability,[1]; first compound 0.01581 µM,0.567
same,relative viability,[1]; first compound 0.05 µM,0.433
same,relative viability,[1]; first compound 0.1581 µM,0.418
same,relative viability,[1]; first compound 0.5 µM,0.315
same,relative viability,[2]; first compound 0.005 µM,0.95
same,relative viability,[2]; first compound 0.01581 µM,0.926
same,relative viability,[2]; first compound 0.05 µM,0.927
same,relative viability,[2]; first compound 0.1581 µM,0.634
same,relative viability,[2]; first compound 0.5 µM,0.65
same,relative viability,[3]; first compound 0.005 µM,1.04
same,relative viability,[3]; first compound 0.01581 µM,0.915
same,relative viability,[3]; first compound 0.05 µM,0.851
same,relative viability,[3]; first compound 0.1581 µM,0.493
same,relative viability,[3]; first compound 0.5 µM,0.394
same,relative viability,[4]; first compound 0.005 µM,0.962
same,relative viability,[4]; first compound 0.01581 µM,1.1
same,relative viability,[4]; first compound 0.05 µM,0.899
same,relative viability,[4]; first compound 0.1581 µM,0.666
same,relative viability,[4]; first compound 0.5 µM,0.452
same,relative viability,[5]; first compound 0.005 µM,0.999
same,relative viability,[5]; first compound 0.01581 µM,0.983
same,relative viability,[5]; first compound 0.05 µM,1.02
same,relative viability,[5]; first compound 0.1581 µM,0.887
same,relative viability,[5]; first compound 0.5 µM,0.872
same,relative viability,[6]; first compound 0.005 µM,0.732
same,relative viability,[6]; first compound 0.01581 µM,0.81
same,relative viability,[6]; first compound 0.05 µM,0.468
same,relative viability,[6]; first compound 0.1581 µM,0.218
same,relative viability,[6]; first compound 0.5 µM,0.224
same,relative viability,[7]; first compound 0.005 µM,0.832
same,relative viability,[7]; first compound 0.01581 µM,0.821
same,relative viability,[7]; first compound 0.05 µM,0.634
same,relative viability,[7]; first compound 0.1581 µM,0.418
same,relative viability,[7]; first compound 0.5 µM,0.353
same,relative viability,[8]; first compound 0.005 µM,0.235
same,relative viability,[8]; first compound 0.01581 µM,0.124
same,relative viability,[8]; first compound 0.1581 µM,0.101
same,relative viability,[8]; first compound 0.5 µM,0.0953
same,relative viability,[9]; first compound 0.005 µM,0.542
same,relative viability,[9]; first compound 0.01581 µM,0.49
same,relative viability,[9]; first compound 0.05 µM,0.391
same,relative viability,[9]; first compound 0.5 µM,0.165
same,relative viability,[10]; first compound 0.005 µM,0.31
same,relative viability,[10]; first compound 0.01581 µM,0.252
same,relative viability,[10]; first compound 0.05 µM,0.121
same,relative viability,[10]; first compound 0.1581 µM,0.0355
same,relative viability,[10]; first compound 0.5 µM,0.0251
same,relative viability,[11]; first compound 0.005 µM,0.563
same,relative viability,[11]; first compound 0.01581 µM,0.361
same,relative viability,[11]; first compound 0.05 µM,0.364
same,relative viability,[11]; first compound 0.1581 µM,0.183
same,relative viability,[11]; first compound 0.5 µM,0.144
same,relative viability,[12]; first compound 0.005 µM,0.461
same,relative viability,[12]; first compound 0.01581 µM,0.505
same,relative viability,[12]; first compound 0.05 µM,0.388
same,relative viability,[12]; first compound 0.1581 µM,0.258
same,relative viability,[12]; first compound 0.5 µM,0.159
same,relative viability,[13]; first compound 0.005 µM,0.823
same,relative viability,[13]; first compound 0.01581 µM,0.518
same,relative viability,[13]; first compound 0.05 µM,0.226
same,relative viability,[13]; first compound 0.1581 µM,0.155
same,relative viability,[13]; first compound 0.5 µM,0.14
same,relative viability,[14]; first compound 0.005 µM,1.02
same,relative viability,[14]; first compound 0.01581 µM,1.4
same,relative viability,[14]; first compound 0.05 µM,1.09
same,relative viability,[14]; first compound 0.1581 µM,0.738
same,relative viability,[14]; first compound 0.5 µM,0.55
same,relative viability,[15]; first compound 0.005 µM,0.817
same,relative viability,[15]; first compound 0.01581 µM,1.01
same,relative viability,[15]; first compound 0.05 µM,1.17
same,relative viability,[15]; first compound 0.1581 µM,0.401
same,relative viability,[15]; first compound 0.5 µM,0.261
same,relative viability,[16]; first compound 0.005 µM,0.757
same,relative viability,[16]; first compound 0.01581 µM,0.673
same,relative viability,[16]; first compound 0.05 µM,0.566
same,relative viability,[16]; first compound 0.1581 µM,0.524
same,relative viability,[16]; first compound 0.5 µM,0.469
same,relative viability,[17]; first compound 0.005 µM,0.898
same,relative viability,[17]; first compound 0.01581 µM,0.785
same,relative viability,[17]; first compound 0.05 µM,0.802
same,relative viability,[17]; first compound 0.1581 µM,0.441
same,relative viability,[17]; first compound 0.5 µM,0.228
same,relative viability,[18]; first compound 0.005 µM,0.811
same,relative viability,[18]; first compound 0.01581 µM,0.733
same,relative viability,[18]; first compound 0.05 µM,0.405
same,relative viability,[18]; first compound 0.1581 µM,0.24
same,relative viability,[18]; first compound 0.5 µM,0.214
same,relative viability,[19]; first compound 0.005 µM,0.489
same,relative viability,[19]; first compound 0.01581 µM,0.391
same,relative viability,[19]; first compound 0.05 µM,0.182
same,relative viability,[19]; first compound 0.1581 µM,0.117
same,relative viability,[19]; first compound 0.5 µM,0.0764
same,relative viability,[20]; first compound 0.005 µM,1.25
same,relative viability,[20]; first compound 0.01581 µM,1.44
same,relative viability,[20]; first compound 0.05 µM,1.1
same,relative viability,[20]; first compound 0.1581 µM,0.514
same,relative viability,[20]; first compound 0.5 µM,0.201
same,relative viability,[21]; first compound 0.005 µM,0.697
same,relative viability,[21]; first compound 0.01581 µM,0.754
same,relative viability,[21]; first compound 0.05 µM,0.858
same,relative viability,[21]; first compound 0.1581 µM,0.688
same,relative viability,[21]; first compound 0.5 µM,0.447
